Source: ChEMBL document CHEMBL1201862, “PubChem BioAssay data set” (2004)
Active and inactive are the calls of the source.

Tests used:
Troponin, cardiac muscle = Troponin, cardiac muscle (Homo sapiens, UniProt P19429+P45379+P63316); test: Fluorescence-based biochemical high throughput dose response assay for activators of the calcium sensitivity of cardiac Regulated Thin Filaments (RTF). [Related pubchem assays (depositor defined):AID493008, AID493018, AID504382, AID504383]; assay type: protein-complex assay
[1] = molecular target: T1, G-protein coupled receptor 35 (Homo sapiens, UniProt Q9HC97); test: SAR analysis of Agonists of the GPR35 Receptor using an Image-Based Assay - Set 3. [Related pubchem assays (depositor defined):AID1961, AID1965]; assay type: functional
T1 sequence (Q9HC97 whole entry): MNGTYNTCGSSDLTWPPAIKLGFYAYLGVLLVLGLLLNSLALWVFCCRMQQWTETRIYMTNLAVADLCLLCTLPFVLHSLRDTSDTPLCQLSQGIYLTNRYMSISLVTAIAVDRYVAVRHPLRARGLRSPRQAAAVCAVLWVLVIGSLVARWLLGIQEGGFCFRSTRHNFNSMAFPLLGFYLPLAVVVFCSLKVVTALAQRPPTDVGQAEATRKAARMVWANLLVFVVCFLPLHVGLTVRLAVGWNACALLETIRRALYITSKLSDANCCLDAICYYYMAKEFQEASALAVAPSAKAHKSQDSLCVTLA

[2] = molecular target: T1, G-protein coupled receptor 35; test: SAR analysis of Antagonists of the GPR35 Receptor using an Image-Based Assay - Set 4. [Related pubchem assays (depositor defined):[…]]; assay type: functional
Cannabinoid receptor 2 [3] = molecular target: T2, Cannabinoid receptor 2 (Homo sapiens, UniProt P34972); test: SAR analysis of antagonists of the Cannabinoid Receptor 2 using an Image-Based Assay - Set 2. [Related pubchem assays (depositor defined):AID1961, AID1965]; assay type: functional
T2 sequence (P34972 whole entry): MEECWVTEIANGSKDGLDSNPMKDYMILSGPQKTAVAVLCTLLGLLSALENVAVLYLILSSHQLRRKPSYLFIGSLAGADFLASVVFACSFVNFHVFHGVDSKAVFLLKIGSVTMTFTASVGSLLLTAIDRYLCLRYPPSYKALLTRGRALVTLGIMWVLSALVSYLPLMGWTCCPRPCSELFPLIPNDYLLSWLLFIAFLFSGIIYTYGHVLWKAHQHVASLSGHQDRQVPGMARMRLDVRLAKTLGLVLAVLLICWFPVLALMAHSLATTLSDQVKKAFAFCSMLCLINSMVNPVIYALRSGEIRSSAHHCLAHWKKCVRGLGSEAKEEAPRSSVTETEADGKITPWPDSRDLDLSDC

[4] = molecular target: G-protein coupled receptor 55 (Homo sapiens, UniProt Q9Y2T6); test: SAR analysis of selective Agonists of GPR55 using an Image-Based Assay - Set 2. [Related pubchem assays (depositor defined):AID1961, AID1965]; assay type: functional
Chain of G-protein coupled receptor 55 (Q9Y2T6 whole entry): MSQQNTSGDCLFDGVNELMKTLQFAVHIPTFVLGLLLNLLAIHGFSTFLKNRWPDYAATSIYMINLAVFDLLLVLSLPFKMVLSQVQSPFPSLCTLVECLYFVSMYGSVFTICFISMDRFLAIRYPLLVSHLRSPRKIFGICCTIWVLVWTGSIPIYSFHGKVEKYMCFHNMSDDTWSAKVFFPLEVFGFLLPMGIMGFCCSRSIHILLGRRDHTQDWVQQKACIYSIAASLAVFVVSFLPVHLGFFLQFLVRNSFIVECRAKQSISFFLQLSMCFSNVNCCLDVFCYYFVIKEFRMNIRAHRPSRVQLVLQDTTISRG

Cannabinoid receptor 2 [5] = molecular target: T2, Cannabinoid receptor 2; test: SAR analysis of agonists of the Cannabinoid Receptor 2 using an Image-Based Assay - Set 2. [Related pubchem assays (depositor defined):AID1961, AID1965]; assay type: functional
Cannabinoid receptor 1 [6] = molecular target: T3, Cannabinoid receptor 1 (Homo sapiens, UniProt P21554); test: SAR analysis of agonists of the Cannabinoid Receptor 1 using an Image-Based Assay - Set 3. [Related pubchem assays (depositor defined):AID1961, AID1965]; assay type: functional
T3 sequence (P21554 whole entry): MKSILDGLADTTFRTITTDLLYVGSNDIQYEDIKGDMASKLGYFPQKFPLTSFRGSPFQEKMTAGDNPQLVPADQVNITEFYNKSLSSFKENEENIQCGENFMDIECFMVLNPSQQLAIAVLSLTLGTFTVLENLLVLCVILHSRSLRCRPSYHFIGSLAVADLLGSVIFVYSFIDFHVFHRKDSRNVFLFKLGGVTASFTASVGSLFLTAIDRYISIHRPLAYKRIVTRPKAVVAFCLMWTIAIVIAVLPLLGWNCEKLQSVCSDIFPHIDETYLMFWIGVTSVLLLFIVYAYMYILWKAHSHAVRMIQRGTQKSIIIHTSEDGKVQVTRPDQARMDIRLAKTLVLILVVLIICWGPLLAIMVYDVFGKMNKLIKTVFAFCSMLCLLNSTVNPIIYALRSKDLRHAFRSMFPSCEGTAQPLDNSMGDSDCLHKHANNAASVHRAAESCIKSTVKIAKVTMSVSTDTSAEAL

Cannabinoid receptor 1 [7] = molecular target: T3, Cannabinoid receptor 1; test: SAR analysis of antagonists of the Cannabinoid Receptor 1 using an Image-Based Assay - Set 3. [Related pubchem assays (depositor defined):AID1961, AID1965]; assay type: functional
[8] = viability of uninfected HEp-2 cells – cell-based, HTS, cytotoxicity control for RSV inhibitor project, dose response (AID 2410); assay type: functional; settings: human respiratory syncytial virus
[9] = molecular target: Intestinal-type alkaline phosphatase (Homo sapiens, UniProt P09923); test: human intestinal alkaline phosphatase activators, dose response, biochemical, luminescence, uHTS hits (AID 463120); assay type: functional
Chain of Intestinal-type alkaline phosphatase (P09923 whole entry): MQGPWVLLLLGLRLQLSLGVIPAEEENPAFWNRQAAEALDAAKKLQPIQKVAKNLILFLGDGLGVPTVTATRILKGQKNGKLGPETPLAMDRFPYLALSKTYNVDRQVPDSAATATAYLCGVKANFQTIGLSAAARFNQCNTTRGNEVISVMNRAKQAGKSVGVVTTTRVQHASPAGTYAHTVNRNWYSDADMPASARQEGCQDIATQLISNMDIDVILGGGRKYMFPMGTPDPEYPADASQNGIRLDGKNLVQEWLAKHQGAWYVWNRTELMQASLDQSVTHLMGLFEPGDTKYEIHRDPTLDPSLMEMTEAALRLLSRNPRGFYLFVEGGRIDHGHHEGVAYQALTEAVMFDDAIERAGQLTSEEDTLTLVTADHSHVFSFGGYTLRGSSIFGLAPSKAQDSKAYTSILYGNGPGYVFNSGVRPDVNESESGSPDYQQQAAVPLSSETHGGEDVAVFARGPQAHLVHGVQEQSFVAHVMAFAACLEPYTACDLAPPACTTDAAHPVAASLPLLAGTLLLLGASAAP

[10] = molecular target: T4, Ubiquitin-conjugating enzyme E2 N (Homo sapiens, UniProt P61088); assay type: functional
T4 sequence (P61088 whole entry): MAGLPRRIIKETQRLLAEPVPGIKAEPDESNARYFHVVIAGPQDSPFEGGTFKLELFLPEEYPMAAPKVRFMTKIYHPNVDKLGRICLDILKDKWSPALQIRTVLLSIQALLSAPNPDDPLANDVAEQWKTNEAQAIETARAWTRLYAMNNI

Bcl-2-related protein A1 = molecular target: T5, Bcl-2-related protein A1 (Mus musculus, UniProt Q07440); assay type: functional;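 also: confirmatory dose–response counterscreen on Bfl-1, used to check hits from a UBC13 polyubiquitin inhibitor campaign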
T5 sequence (Q07440 whole entry): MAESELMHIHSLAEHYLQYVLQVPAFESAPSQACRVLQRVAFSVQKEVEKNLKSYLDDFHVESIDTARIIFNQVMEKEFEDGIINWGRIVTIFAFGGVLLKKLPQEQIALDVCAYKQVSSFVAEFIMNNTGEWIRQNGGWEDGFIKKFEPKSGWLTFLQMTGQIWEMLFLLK

[11] = molecular target: T4, Ubiquitin-conjugating enzyme E2 N; assay type: functional; remark: listed apart in the source
[12] = antiviral efficacy against SV40, host toxicity – BSC cells, set 3, confirmation (AID 485276); assay type: functional, cell-based
Large T antigen = Large T antigen (Simian virus 40, UniProt P03070); test: A confirmatory biochemical assay using the ADP-Hunter methodology, purified TAg, and ATP to quantify activity of synthesized compounds that inhibit the ATPase activity of Tag (3). [Related pubchem assays (depositor defined):AID1903, AID1909, AID2102, AID2501, AID2615, AID2775, AID435001, AID449729]; parameters: species or system Betapolyomavirus macacae
Chain of Large T antigen (P03070 whole entry): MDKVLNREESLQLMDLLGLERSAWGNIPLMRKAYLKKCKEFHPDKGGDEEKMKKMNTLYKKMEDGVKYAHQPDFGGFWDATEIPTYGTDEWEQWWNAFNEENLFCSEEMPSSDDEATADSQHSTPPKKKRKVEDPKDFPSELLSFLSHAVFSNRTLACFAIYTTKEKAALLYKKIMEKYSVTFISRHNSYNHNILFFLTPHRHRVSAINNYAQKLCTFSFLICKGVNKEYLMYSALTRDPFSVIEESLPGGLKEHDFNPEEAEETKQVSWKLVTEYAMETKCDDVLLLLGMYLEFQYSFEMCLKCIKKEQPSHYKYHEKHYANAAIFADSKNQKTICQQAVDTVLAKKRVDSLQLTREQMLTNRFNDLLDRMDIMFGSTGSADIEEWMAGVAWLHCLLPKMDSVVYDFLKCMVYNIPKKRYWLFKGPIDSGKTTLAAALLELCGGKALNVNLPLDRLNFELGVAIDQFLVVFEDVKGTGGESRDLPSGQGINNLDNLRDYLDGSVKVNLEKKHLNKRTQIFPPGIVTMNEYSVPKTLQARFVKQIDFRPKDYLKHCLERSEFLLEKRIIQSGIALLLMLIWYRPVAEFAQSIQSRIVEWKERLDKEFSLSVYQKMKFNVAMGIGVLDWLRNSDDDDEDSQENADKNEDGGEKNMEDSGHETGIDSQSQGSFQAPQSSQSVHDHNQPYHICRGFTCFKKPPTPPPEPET

For `Cc1sc(NC(=O)CSc2nnc(C(C)C)n2C)c(C#N)c1C`, the EC50 (Troponin, cardiac muscle) was > 71.5 µM (inactive).

For `Cc1cccc(N2CCN(C(=O)c3cccc(S(=O)(=O)N4CCCCC4)c3)CC2)c1C`, the EC50 [1] was > 32 µM (inactive), the IC50 [2] was > 32 µM (inactive) and the IC50 (Cannabinoid receptor 2 [3]) was > 32 µM (inactive). The EC50 [4] was > 32 µM (inactive), the EC50 (Cannabinoid receptor 2 [5]) was > 32 µM (inactive) and the EC50 (Cannabinoid receptor 1 [6]) was > 32 µM (inactive). For the same compound, the IC50 (Cannabinoid receptor 1 [7]) was > 32 µM (inactive).

In the case of `C#CCOCCOCCOCCNc1nc(N2CCN(C(=O)CCCCCCCCCCNC(=O)[C@H]([C@@H](C)CC)n3cc(CCCCN=C(N)N)nn3)CC2)nc(N2CCN(C(=O)CCCCCCCCCCNC(=O)[C@H](CO)n3cc(CCCSC)nn3)CC2)n1`, the CC50 [8] is reported as 13.7 µM (active), the EC50 [9] is reported as 40.7 µM (active) and the IC50 [10] is reported as 3.7 µM (active). For the same compound, the IC50 (Bcl-2-related protein A1) was 3.11 µM (active) and the IC50 [11] was 5.99 µM (active).

With `Oc1ccc(Sc2ccc(O)cc2O)c(O)c1` the IC50 [12] was 146 µM (active) and the IC50 (Large T antigen) was 61.2 µM (active).
